Numbered stars: 1 amine (or outer) side, 2 acyl side, 3 side chain; on linkers, the order of the positions; unused ones are H or OH. Square brackets hold non-standard residues; d marks the D form. Peptide text beside a SMILES is read from it. X1 = CC(F)(F)C[C@H](N[*:1])C(=O)[*:2]; Phe(2-Me) = Cc1ccccc1C[C@H](N)C(=O)O; Suc = O=C(CCC(=O)[*:2])[*:1]; Tle = CC(C)(C)[C@H](N)C(=O)O
Each compound was assayed against T1, HCV proteinase (Hepatitis C virus genotype 1b, UniProt P26662) (assay: HCV proteinase inhibition: cleavage of quenched fluorescence substrate NS4A/B.F peptide by enzyme MBP-NS3"Gly12-NS4A). Conditions: enzyme MBP-NS3"Gly12-NS4A 1 μg in 200 μl, pH 8.5, 15 minutes preincubation, NS4A/B.F peptide 10 μM, read after a further 10 minutes.
T1 construct: Regions encompassing the NS3 proteinase domain (amino acids 1007-1219); made in house; host or cells: E. coli strain MC1061
Format: biochemical
Excerpt: As mentioned earlier, the compounds of formula I and salts of acidic compounds of formula I with bases are inhibitors of proteases of viral origin.
The nucleotide sequence of this expression plasmid is given in FIGS. 1a-j appended hereto and the amino acid sequence of its expression product is given in FIG. 2 appended hereto. It is based on the pMAL®-c2 vector supplied by New England Biolabs, Inc. (32 Tozer Rd., Beverly, Mass., USA). The principle of the construction was to create an in-frame fusion of the maltose binding protein (MBP) gene supplied by the pMAL-c2 vector, and sequences of the HCV genome necessary for NS3 proteinase activity. These HCV sequences were inserted between the EcoRI and HindIII sites of the pMAL-c2 polylinker (positions 2695 and 3556 respectively of the sequence given in FIGS. 1a-j).
HCV sequences were derived from plasmids pDS 3348-4045 and pBFK 3348-6062, described by Bartenschlager et al, 1993 (Journal of Virology, 67, 3835-3844). Regions encompassing the NS3 proteinase domain (amino acids 1007-1219) and the NS4A domain (amino acids 1658-1711) were isolated and inserted into the pMAL-c2 vector using standard recombinant DNA techniques, including the PCR amplification of required sequences. Between the NS3 and NS4A domains, a linker region was constructed using synthetic oligonucleotides (positions 3343-3390; amino acids 606-621). The resulting plasmid was used to transform E. coli (strain MC1061) cells and expression of the MBP-NS3"Gly12 -NS4A enzyme was induced as described below.
E. coli (strain MC1061) cells transformed with the foregoing plasmid were grown in Luria broth containing ampicillin (100 μg/ml) at 37° C. The cells were grown until an optical density of 0.5 at 600 nm had been reached and enzyme expression was then induced by adding 1 mM isopropylthiogalactoside and incubating at 37° C. for a further 3 hours. The cells were harvested by centrifugation and stored at -80° C.
A pellet from 4 l of bacterial culture was resuspended in E.coli lysis buffer (20 mM Tris HCl, pH 7.5, containing 150 mM NaCl, 1 mM EDTA and 10 mM dithiothreitol) and cell lysis was achieved by two passages through a French Pressure cell. The clear supernatant obtained by centrifugation (18000 g, 30 minutes) was then applied to an amylose resin column (4×1 cm) (New England Biolabs) which had been equilibrated with ice-cold 50 mM Tris HCl, pH 8.5, containing 200 mM NaCl, 1 mM dithiothreitol and 5% glycerol. The column was washed thoroughly with the equilibration buffer and bound protein was eluted using the equilibration buffer containing 10 mM maltose. Fractions of 1 ml were collected, with fractions containing the enzyme being pooled and stored at -80° C. Enzyme concentration was assayed by the method of M. B. Bradford, Analytical Biochemistry, 1976, vol. 72, p.248.
Compounds of formula I (routinely prepared as stock solutions in DMSO) were assayed for their ability to inhibit the cleavage of a quenched fluorescence substrate [NS4A/B.F peptide (N-[4-[4-(dimethylamino)phenylazo]benzoyl]-L-α-aspartyl-L-α-glutamyl-L-methionyl-L-(x-glutamyl-L-α-glutamyl-L-cysteinyl-L-alanyl-L- seryl-L-histidyl-N5-[2-(5-sulpho-1-naphthylamino)ethyl]-L-glutaminamide); Wilkinson et al, Society for General Microbiology Meeting, University of Warwick, England, 28 Mar. 1996] based on the NS4A/4B cleavage site by enzyme MBP-NS3"Gly12 -NS4A in microtitre plates as follows:
The enzyme (1 μg) was added to 200 μl final volume of a mixture containing 50 mM Tris HCl, pH 8.5, with 1 mM dithiothreitol, 0.1% Triton X-100 and the test compound of formula I. The resulting mixture was incubated at room temperature for 15 minutes prior to starting the reaction by the addition of NS4A/B.F peptide to a final concentration of 10 μM. The progress of the reaction was evaluated with a Perseptive Biosystems Cytofluor II using an excitation wavelenth of 360 nm and an emission wavelength of 530 nm. […]

T1 sequence (P26662 1007-1219): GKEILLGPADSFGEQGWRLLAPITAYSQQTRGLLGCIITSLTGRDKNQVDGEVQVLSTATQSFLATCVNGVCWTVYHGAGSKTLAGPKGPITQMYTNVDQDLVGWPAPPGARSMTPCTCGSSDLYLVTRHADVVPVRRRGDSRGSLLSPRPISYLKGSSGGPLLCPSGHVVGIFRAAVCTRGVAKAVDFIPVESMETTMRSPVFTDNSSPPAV

Q: Which IC50 does the source give for `C=CCC(C=O)NC(=O)[C@H](CC(C)C)NC(=O)[C@@H](NC(=O)[C@H](Cc1ccccc1C)NC(=O)[C@H](CCC(=O)O)NC(=O)[C@H](CC(=O)O)NC(=O)CCC(=O)O)C(C)(C)C` (mixture of isomers) [A, 2(RS)-[[N-[N-[N-[N-[N-(3-carboxypropionyl)-L-α-aspartyl]-L-α-glutamyl]-2-methyl-L-phenylalanyl]-3-methyl-L-valyl]-L-leucyl]amino]-4-pentenaldehyde] here?
A: The IC50 was 90 nM.

Q: `Cc1ccccc1C[C@H](NC(=O)[C@H](CCC(=O)O)NC(=O)[C@H](CC(=O)O)NC(=O)CCC(=O)O)C(=O)N[C@H](C(=O)N[C@@H](CC(C)C)C(=O)NC(C=O)CC(F)(F)F)C(C)(C)C` (mixture of isomers) [C, 2(RS)-[[N-[N-[N-[N-[N-(3-carboxypropionyl)-L-α-aspartyl]-L-α-glutamyl]-2-methyl-L-phenylalanyl]-3-methyl-L-valyl]-L-leucyl]amino]-4,4,4-trifluorobutyraldehyde] was tested. Which IC50 did it give?
A: The IC50 was 64 nM.

Q: `C=CCC(NC(=O)[C@H](CC(C)C)NC(=O)[C@@H](NC(=O)[C@H](Cc1ccccc1C)NC(=O)[C@H](CCC(=O)O)NC(=O)[C@H](CC(=O)O)NC(=O)CCC(=O)O)C(C)(C)C)B(O)O` (mixture of isomers) [D, 1(RS)-[[N-[N-[N-[N-[N-(3-carboxypropionyl)-L-α-aspartyl]-L-α-glutamyl]-2-methyl-L-phenylalanyl]-3-methyl-L-valyl]-L-leucyl]amino]-3-butenylboronic acid] was tested. Which IC50 did it give?
A: Its IC50 is 34 nM.

Q: `CCC(NC(=O)[C@H](CC(C)C)NC(=O)[C@@H](NC(=O)[C@H](Cc1ccccc1C)NC(=O)[C@H](CCC(=O)O)NC(=O)[C@H](CC(=O)O)NC(=O)CCC(=O)O)C(C)(C)C)B(O)O` (mixture of isomers) [E, 1(RS)-[[N-[N-[N-[N-[N-(3-carboxypropionyl)-L-α-aspartyl]-L-α-glutamyl]-2-methyl-L-phenylalanyl]-3-methyl-L-valyl]-L-leucyl]amino]propylboronic acid] was tested. Which IC50 did it give?
A: The IC50 was 38 nM.

Q: With `CCCC(NC(=O)[C@H](CC(C)C)NC(=O)[C@@H](NC(=O)[C@H](Cc1ccccc1C)NC(=O)[C@H](CCC(=O)O)NC(=O)[C@H](CC(=O)O)NC(=O)CCC(=O)O)C(C)(C)C)B(O)O` (mixture of isomers) [F, 1(RS)-[[N-[N-[N-[N-[N-(3-carboxypropionyl)-L-α-aspartyl]-L-α-glutamyl]-2-methyl-L-phenylalanyl]-3-methyl-L-valyl]-L-leucyl]amino]butylboronic acid] as the compound, how does the IC50 read?
A: The IC50 was 160 nM.

Q: How did the IC50 turn out when `Cc1ccccc1C[C@H](NC(=O)[C@H](CCC(=O)O)NC(=O)[C@H](CC(=O)O)NC(=O)CCC(=O)O)C(=O)N[C@H](C(=O)N[C@@H](CC(C)C)C(=O)N[C@H](C=O)CC(C)(F)F)C(C)(C)C` [B, 2(S)-[[N-[N-[N-[N-[N-(3-carboxypropionyl)-L-α-aspartyl]-L-α-glutamyl]-2-methyl-L-phenylalanyl]-3-methyl-L-valyl]-L-leucyl]amino]-4,4-difluorovaleraldehyde] (Suc-DE[Phe(2-Me)][Tle]L[X1]-aldehyde) was run?
A: The IC50 was 70 nM.
